Tests used:
[1] = molecular target: T1, rGpdC (GpdC) (Aspergillus nidulans, UniProt Q5BA47); test: residual GAPDH activity after preincubation; biotin-switch assay; type: biochemical; conditions: covalent (S-nitrosation of thiols); 0–1 mM, 1 h, 25°C, pH 7.5; activity measured with NADP+
T1 construct: gene ANIA_02583; recombinant from synthetic E. coli codon-optimized gene, vector pET-21a (Nde I/Hind III), expressed in E. coli BL21 (DE3), HisTrap purified
T1 sequence (Q5BA47 1-354): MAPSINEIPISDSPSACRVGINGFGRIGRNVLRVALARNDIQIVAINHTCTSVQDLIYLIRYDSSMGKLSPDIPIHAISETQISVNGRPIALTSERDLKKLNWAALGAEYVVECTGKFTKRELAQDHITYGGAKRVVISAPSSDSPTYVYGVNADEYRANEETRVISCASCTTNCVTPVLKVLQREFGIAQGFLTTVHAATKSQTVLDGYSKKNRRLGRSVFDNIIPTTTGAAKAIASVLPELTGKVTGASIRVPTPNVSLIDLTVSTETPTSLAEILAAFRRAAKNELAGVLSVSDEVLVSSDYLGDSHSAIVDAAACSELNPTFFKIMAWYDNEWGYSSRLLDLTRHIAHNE

[2] = molecular target: T2, rGpdA (GpdA) (Aspergillus nidulans, UniProt P20445); test: as above; type: biochemical; conditions: covalent (S-nitrosation of thiols); 0–1 mM, 1 h, 25°C, pH 7.5; activity measured with NAD+
T2 construct: recombinant from cDNA, vector pET-21a, expressed in E. coli BL21 (DE3), HisTrap purified
T2 sequence (P20445 whole entry): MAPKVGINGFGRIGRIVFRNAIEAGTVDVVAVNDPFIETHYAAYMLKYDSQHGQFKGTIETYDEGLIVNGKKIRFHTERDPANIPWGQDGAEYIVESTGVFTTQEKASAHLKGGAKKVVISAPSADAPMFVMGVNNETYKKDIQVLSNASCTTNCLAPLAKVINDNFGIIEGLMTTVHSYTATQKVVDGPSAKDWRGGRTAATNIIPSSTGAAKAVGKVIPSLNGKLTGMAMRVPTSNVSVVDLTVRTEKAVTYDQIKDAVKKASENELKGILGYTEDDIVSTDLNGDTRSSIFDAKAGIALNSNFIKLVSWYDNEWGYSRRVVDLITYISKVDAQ

With `N[C@@H](CCC(=O)N[C@@H](CSN=O)C(=O)NCC(=O)O)C(=O)O` [GSNO] the “residual GAPDH activity after preincubation; biotin-switch assay” value [1] was “GSNO modified the thiol residues of rGpdA and rGpdC to S-nitrosothiol and impaired enzyme activity” and the “residual GAPDH activity after preincubation; biotin-switch assay” value [2] was “GSNO modified the thiol residues of rGpdA and rGpdC to S-nitrosothiol and impaired enzyme activity”.

— PMC11502334, “Fungal glyceraldehyde 3-phosphate dehydrogenase GpdC maintains glycolytic mechanism against reactive nitrogen stress-induced damage” (Frontiers in Microbiology, 2024)
